Data taken from PubChem BioAssay AID330 (DTP/NCI, 2004).
“And” between values parts separate entries of the source, which are not always exact repeats. Equal values may be shown once. Inconclusive results and toxic doses are left out.

Tested on: P388 leukemia ip, CD2F1 mice, survival T/C
Assay: NCI In Vivo Anticancer Drug Screen. Data for tumor model P388 Leukemia (intraperitoneal) in CD2F1 (CDF1) mice
Conditions: endpoint: median survival time, higher = longer survival
Method in brief: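 Mice carrying the transplanted tumor received test compound or vehicle. Survival was recorded in each group, and the value is the treated-group measurement divided by that of the vehicle-treated control group.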

[1] = dose: 25.0 mg/kg/injection, schedule: Q01DX009 (ip), vehicle: distilled water + Tween-80
[2] = dose: 50.0 mg/kg/injection, schedule: Q01DX009 (ip), vehicle: distilled water + Tween-80
[3] = dose: 200.0 mg/kg/injection, schedule: Q01DX009 (ip), vehicle: distilled water + Tween-80
[4] = dose: 150.0 mg/kg/injection, schedule: Q01DX009 (ip), vehicle: saline with Tween-80
[5] = dose: 200.0 mg/kg/injection, schedule: Q01DX009 (ip), vehicle: saline with Tween-80
[6] = dose: 60.0 mg/kg/injection, schedule: Q01DX005 (ip), vehicle: saline with Tween-80
[7] = dose: 120.0 mg/kg/injection, schedule: Q01DX005 (ip), vehicle: saline with Tween-80
[8] = dose: 240.0 mg/kg/injection, schedule: Q01DX005 (ip), vehicle: saline with Tween-80

## COC1=C(N)C(=O)c2nc(-c3nc(C(=O)O)c(C)c(-c4ccc(OC)c(OC)c4O)c3N)ccc2C1=O
dose: 0.01 mg/kg/injection, schedule: Q01DX009 (ip), vehicle: other
  T/C: 93 % of control
dose: 0.01 mg/kg/injection, schedule: Q## X024 (ip), vehicle: other
  T/C: 110 % of control
dose: 0.02 mg/kg/injection, schedule: Q01DX009 (ip), vehicle: DMSO
  T/C: 101 % of control
dose: 0.02 mg/kg/injection, schedule: Q## X016 (ip), vehicle: other
  T/C: 110 % of control
dose: 0.02 mg/kg/injection, schedule: Q## X024 (ip), vehicle: other
  T/C: 100 % of control
dose: 0.03 mg/kg/injection, schedule: Q01DX009 (ip), vehicle: distilled water + Tween-80
  T/C: 117 % of control and 97 % of control
dose: 0.03 mg/kg/injection, schedule: Q01DX009 (ip), vehicle: other
  T/C: 95 % of control
dose: 0.04 mg/kg/injection, schedule: Q01DX009 (ip), vehicle: DMSO
  T/C: 123 % of control
dose: 0.05 mg/kg/injection, schedule: Q01DX001 (ip), vehicle: other
  T/C: 120 % of control
dose: 0.05 mg/kg/injection, schedule: Q01DX009 (ip), vehicle: DMSO
  T/C: 119 % of control
dose: 0.05 mg/kg/injection, schedule: Q## X008 (ip), vehicle: other
  T/C: 120 % of control
dose: 0.05 mg/kg/injection, schedule: Q## X016 (ip), vehicle: other
  T/C: 110 % of control
dose: 0.05 mg/kg/injection, schedule: Q## X024 (ip), vehicle: other
  T/C: 110 % of control
dose: 0.06 mg/kg/injection, schedule: Q01DX009 (ip), vehicle: DMSO
  T/C: 124 % of control
dose: 0.08 mg/kg/injection, schedule: Q01DX009 (ip), vehicle: DMSO
  T/C: 110 % of control
dose: 0.1 mg/kg/injection, schedule: Q01DX001 (ip), vehicle: other
  T/C: 120 % of control
dose: 0.1 mg/kg/injection, schedule: Q01DX009 (oral), vehicle: other
  T/C: 110 % of control
dose: 0.1 mg/kg/injection, schedule: Q## X008 (ip), vehicle: other
  T/C: 120 % of control
dose: 0.1 mg/kg/injection, schedule: Q## X016 (ip), vehicle: other
  T/C: 110 % of control
dose: 0.12 mg/kg/injection, schedule: Q01DX009 (ip), vehicle: other
  T/C: 120 % of control
dose: 0.15 mg/kg/injection, schedule: Q01DX009 (ip), vehicle: dioxane
  T/C: 123 % of control
dose: 0.16 mg/kg/injection, schedule: Q01DX009 (ip), vehicle: distilled water + Tween-80
  T/C: 123 % of control
dose: 0.16 mg/kg/injection, schedule: Q01DX009 (ip), vehicle: other
  T/C: 102 % of control and 103 % of control
dose: 0.2 mg/kg/injection, schedule: Q01DX001 (ip), vehicle: other
  T/C: 120 % of control
dose: 0.2 mg/kg/injection, schedule: Q01DX009 (oral), vehicle: other
  T/C: 110 % of control
dose: 0.2 mg/kg/injection, schedule: Q## X008 (ip), vehicle: other
  T/C: 120 % of control
dose: 0.2 mg/kg/injection, schedule: Q## X016 (ip), vehicle: other
  T/C: 120 % of control
dose: 0.32 mg/kg/injection, schedule: Q01DX009 (ip), vehicle: distilled water + Tween-80
  T/C: 101 % of control and 94 % of control
dose: 0.4 mg/kg/injection, schedule: Q01DX009 (oral), vehicle: other
  T/C: 110 % of control
dose: 0.8 mg/kg/injection, schedule: Q01DX001 (oral), vehicle: other
  T/C: 100 % of control
dose: 0.8 mg/kg/injection, schedule: Q01DX009 (oral), vehicle: other
  T/C: 100 % of control
dose: 1.6 mg/kg/injection, schedule: Q01DX001 (oral), vehicle: other
  T/C: 100 % of control
dose: 2.5 mg/kg/injection, schedule: Q01DX009 (ip), vehicle: saline with Tween-80
  T/C: 95 % of control
dose: 3.2 mg/kg/injection, schedule: Q01DX001 (oral), vehicle: other
  T/C: 90 % of control
dose: 12.5 mg/kg/injection, schedule: Q01DX009 (ip), vehicle: distilled water + Tween-80
  T/C: 103 % of control
[1]
  T/C: 110 % of control
[2]
  T/C: 119 % of control
[3]
  T/C: 119 % of control
dose: 25.0 micrograms/kg/injection, schedule: Q01DX009 (ip), vehicle: other
  T/C: 120 % of control
dose: 400.0 micrograms/kg/injection, schedule: Q01DX009 (ip), vehicle: other
  T/C: 114 % of control

## Nc1ccc(S(N)(=O)=O)cc1
dose: 12.5 mg/kg/injection, schedule: Q01DX009 (ip), vehicle: saline with Tween-80
  T/C: 105 % of control and 112 % of control
[4]
  T/C: 108 % of control and 97 % of control
[5]
  T/C: 101 % of control and 89 % of control
dose: 400.0 mg/kg/injection, schedule: Q01DX009 (ip), vehicle: saline with Tween-80
  T/C: 98 % of control and 100 % of control

## Clc1nnc(-c2ccccc2)s1
dose: 25.0 mg/kg/injection, schedule: Q04DX003 (ip), vehicle: Klucel (hydroxypropylcellulose) (HPC)
  T/C: 100 % of control
dose: 50.0 mg/kg/injection, schedule: Q04DX003 (ip), vehicle: Klucel (hydroxypropylcellulose) (HPC)
  T/C: 102 % of control
dose: 100.0 mg/kg/injection, schedule: Q04DX003 (ip), vehicle: Klucel (hydroxypropylcellulose) (HPC)
  T/C: 100 % of control

## COc1ccc(Br)c(C(=O)N2CCc3ccccc32)c1OS(=O)(=O)c1ccc(C)cc1
[1]
  T/C: 98 % of control
[2]
  T/C: 100 % of control
dose: 100.0 mg/kg/injection, schedule: Q01DX009 (ip), vehicle: distilled water + Tween-80
  T/C: 91 % of control
[3]
  T/C: 89 % of control
dose: 400.0 mg/kg/injection, schedule: Q01DX009 (ip), vehicle: distilled water + Tween-80
  T/C: 95 % of control

## CCOc1cc(/C=C2\SC(=O)N(CC)C2=O)ccc1O
dose: 50.0 mg/kg/injection, schedule: Q01DX009 (ip), vehicle: saline with Tween-80
  T/C: 108 % of control
dose: 100.0 mg/kg/injection, schedule: Q01DX009 (ip), vehicle: saline with Tween-80
  T/C: 109 % of control
[5]
  T/C: 90 % of control

## CC1C2C=CC1C(c1c3ccc(=O)c(O)c-3oc3c(O)c(O)ccc13)C2C(=O)O (stereo unspecified)
[6]
  T/C: 94 % of control
[7]
  T/C: 87 % of control
[8]
  T/C: 91 % of control

## Cc1ccn2cc(CC(=O)O)nc2n1
dose: 100.0 mg/kg/injection, schedule: Q04DX003 (ip), vehicle: saline
  T/C: 101 % of control
dose: 200.0 mg/kg/injection, schedule: Q04DX003 (ip), vehicle: saline
  T/C: 106 % of control
dose: 400.0 mg/kg/injection, schedule: Q04DX003 (ip), vehicle: saline
  T/C: 105 % of control

## COc1ccc2c(=O)c(-c3ccc(OC)c(OC)c3)c(C)oc2c1
[6]
  T/C: 94 % of control
[7]
  T/C: 91 % of control
[8]
  T/C: 86 % of control

## C#CC(CC)OC(=O)c1ccc([N+](=O)[O-])cc1 (stereo unspecified)
dose: 50.0 mg/kg/injection, schedule: Q01DX009 (ip), vehicle: Klucel (hydroxypropylcellulose) (HPC)
  T/C: 103 % of control
dose: 100.0 mg/kg/injection, schedule: Q01DX009 (ip), vehicle: Klucel (hydroxypropylcellulose) (HPC)
  T/C: 103 % of control
dose: 200.0 mg/kg/injection, schedule: Q01DX009 (ip), vehicle: Klucel (hydroxypropylcellulose) (HPC)
  T/C: 91 % of control

## CNC(=O)OCc1c(COC(=O)NC)c(-c2ccc(Br)cc2)n(C)c1C
dose: 20.0 mg/kg/injection, schedule: Q01DX009 (ip), vehicle: distilled water + Tween-80
  T/C: 155 % of control

## Cc1ncc(CNC(=O)N(CCCl)N=O)c(N)n1
dose: 10.0 mg/kg/injection, schedule: Q01DX001 (ip), vehicle: saline
  T/C: 191 % of control
dose: 20.0 mg/kg/injection, schedule: Q01DX001 (ip), vehicle: saline
  T/C: 260 % of control and 336 % of control
dose: 30.0 mg/kg/injection, schedule: Q01DX001 (ip), vehicle: saline
  T/C: 517 % of control
dose: 40.0 mg/kg/injection, schedule: Q01DX001 (ip), vehicle: saline
  T/C: 120 % of control and 260 % of control

## O=c1cc(O)n(-c2ccccc2)c(=O)n1-c1ccccc1
dose: 75.0 mg/kg/injection, schedule: Q01DX009 (ip), vehicle: saline with Tween-80
  T/C: 102 % of control
[4]
  T/C: 100 % of control
dose: 300.0 mg/kg/injection, schedule: Q01DX009 (ip), vehicle: saline with Tween-80
  T/C: 100 % of control

## Nc1ncc2c(n1)CCCC2
dose: 50.0 mg/kg/injection, schedule: Q01DX005 (ip), vehicle: saline with Tween-80
  T/C: 98 % of control
dose: 100.0 mg/kg/injection, schedule: Q01DX005 (ip), vehicle: saline with Tween-80
  T/C: 98 % of control
dose: 200.0 mg/kg/injection, schedule: Q01DX005 (ip), vehicle: saline with Tween-80
  T/C: 100 % of control

## NC(=O)C1C2C=CC(O2)C1C(=O)O (stereo unspecified)
dose: 7.5 mg/kg/injection, schedule: Q01DX005 (ip), vehicle: saline
  T/C: 100 % of control
dose: 15.0 mg/kg/injection, schedule: Q01DX005 (ip), vehicle: saline
  T/C: 104 % of control
dose: 30.0 mg/kg/injection, schedule: Q01DX005 (ip), vehicle: saline
  T/C: 104 % of control
